Assay results as given in patent US12252524B2, “GIP/GLP1 co-agonist compounds” (Eli Lilly and Company, priority 2018, dated 2025).
Numbered stars: 1 amine (or outer) side, 2 acyl side, 3 side chain; on linkers, the order of the positions; unused ones are H or OH. Square brackets hold non-standard residues; d marks the D form. Side chains are listed from the residue outwards. Peptide text beside a SMILES is read from it. * marks the point of attachment. C20 diacid = O=C(O)CCCCCCCCCCCCCCCCCCC(=O)*; C18 diacid = O=C(O)CCCCCCCCCCCCCCCCC(=O)*; γGlu = O=C(O)[C@H](CCC(=O)[*:2])N[*:1]; AEEA = NCCOCCOCC(=O)O; Aib = CC(C)(N)C(=O)O

Columns and labels:
human GIP receptor = molecular target: T1, human GIP receptor (Homo sapiens, UniProt P48546); assay: [125I]-GIP binding (SPA), human GIP receptor; details: read-out: hGIPR Ki, nM (SEM, n)
T1 construct: expressed in transfected cells; crude membranes
T1 sequence (P48546 22-466): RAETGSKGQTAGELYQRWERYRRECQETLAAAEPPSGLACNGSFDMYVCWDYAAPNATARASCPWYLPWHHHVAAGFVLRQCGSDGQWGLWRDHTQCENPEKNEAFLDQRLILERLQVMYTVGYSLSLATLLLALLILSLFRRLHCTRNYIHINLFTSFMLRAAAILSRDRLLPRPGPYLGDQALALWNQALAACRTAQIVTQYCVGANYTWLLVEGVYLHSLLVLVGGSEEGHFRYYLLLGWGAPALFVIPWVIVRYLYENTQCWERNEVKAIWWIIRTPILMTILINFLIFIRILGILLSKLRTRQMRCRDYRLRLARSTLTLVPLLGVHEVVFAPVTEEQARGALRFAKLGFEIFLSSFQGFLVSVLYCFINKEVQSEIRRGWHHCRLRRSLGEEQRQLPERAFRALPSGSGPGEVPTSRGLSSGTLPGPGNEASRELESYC

human GLP-1R = human GLP-1R (Homo sapiens, UniProt P43220); assay: [125I]-GLP-1 binding (SPA), human GLP-1 receptor; design: expressed in transfected cells; crude membranes; details: read-out: hGLP1R Ki, (nM) (SEM, n)
human GLP-1R, sequence (P43220 24-463): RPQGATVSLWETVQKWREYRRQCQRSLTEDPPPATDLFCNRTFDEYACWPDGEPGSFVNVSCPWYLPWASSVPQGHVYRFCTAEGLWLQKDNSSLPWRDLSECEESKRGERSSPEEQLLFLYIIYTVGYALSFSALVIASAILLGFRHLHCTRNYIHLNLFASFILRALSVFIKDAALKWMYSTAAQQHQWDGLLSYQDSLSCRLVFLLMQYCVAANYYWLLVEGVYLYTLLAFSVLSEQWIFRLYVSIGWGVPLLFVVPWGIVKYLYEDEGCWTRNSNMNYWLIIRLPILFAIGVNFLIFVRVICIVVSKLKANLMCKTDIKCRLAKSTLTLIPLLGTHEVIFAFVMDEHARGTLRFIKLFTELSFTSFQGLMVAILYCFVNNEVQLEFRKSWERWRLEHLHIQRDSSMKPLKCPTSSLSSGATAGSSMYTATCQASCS
Method in brief: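 Membranes: hypotonic lysis (50 mM Tris HCl, pH 7.5, protease inhibitors), Potter-Elvehjem homogenization, high-speed pellet (35000×g 1 h or 25000×g 30 min, 4° C.). Buffer: 25 mM HEPES pH 7.4, 2.5 mM CaCl2, 1 mM MgCl2. Four-parameter IC50 fit; Ki as geometric mean ± SEM.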

[1] = molecular target: T2, gastric inhibitory peptide receptor (GIPR) (Homo sapiens, UniProt P48546); assay: cAMP pharmacological functional assay in presence of casein, hGIPR; assay type: cell-based; details: HEK293 cells expressing hGIPR, 0.1% Casein, geometric mean; read-out: hGIPR cAMP Rel EC50 nM (SEM, n)
T2 sequence (P48546 22-466): T1 sequence (P48546 22-466)

[2] = molecular target: human GLP-1 receptor (GLP-1R) (Homo sapiens, UniProt P43220); assay: cAMP pharmacological functional assay in presence of casein, hGLP-1R; assay type: cell-based; details: HEK293 cells expressing hGLP-1R, 0.1% Casein, geometric mean; read-out: hGLP1R cAMP Rel EC50 nM (SEM, n)
human GLP-1 receptor (GLP-1R), sequence (P43220 24-463): as above

human Gcg receptor = molecular target: T3, human Gcg receptor (Homo sapiens, UniProt P47871); assay: [125I]-Glucagon binding (SPA), human Gcg receptor; details: read-out: hGLcgR Ki, nM (SEM, n)
T3 construct: expressed in transfected cells; crude membranes
T3 sequence (P47871 26-477): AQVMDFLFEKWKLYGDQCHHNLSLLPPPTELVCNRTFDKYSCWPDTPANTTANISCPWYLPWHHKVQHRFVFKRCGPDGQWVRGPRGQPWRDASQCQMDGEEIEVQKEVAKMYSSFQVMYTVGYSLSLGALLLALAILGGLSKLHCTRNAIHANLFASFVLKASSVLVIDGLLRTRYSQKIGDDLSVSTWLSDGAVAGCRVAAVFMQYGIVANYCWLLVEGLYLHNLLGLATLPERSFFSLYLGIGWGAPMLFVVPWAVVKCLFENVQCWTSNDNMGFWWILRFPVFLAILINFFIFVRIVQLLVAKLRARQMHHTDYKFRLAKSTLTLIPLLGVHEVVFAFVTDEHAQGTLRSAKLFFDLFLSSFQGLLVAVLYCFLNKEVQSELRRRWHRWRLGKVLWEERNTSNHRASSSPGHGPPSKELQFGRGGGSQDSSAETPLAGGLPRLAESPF
Method in brief: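 Scintillation counts are taken after membranes and WGA beads incubate and settle for 12 hours at room temperature. Buffer is 25 mM HEPES, pH 7.4, with CaCl2, MgCl2, bacitracin and Tween-20. Ki values, from four-parameter IC50 fits, are geometric means over independent days.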

| SMILES | Ki (human GIP receptor) [nM] | Ki (human GLP-1R) [nM] | EC50 [1] [nM] | EC50 [2] [nM] | Ki (human Gcg receptor) [nM] |
| --- | --- | --- | --- | --- | --- |
| CC[C@H](C)[C@H](NC(=O)[C@H](CC(C)C)NC(=O)[C@H](Cc1ccc(O)cc1)NC(=O)[C@H](CCC(=O)O)NC(=O)[C@@H](NC(=O)[C@H](Cc1ccccc1)NC(=O)[C@H](C)NC(=O)[C@H](Cc1c[nH]cn1)NC(=O)[C@H](CCC(N)=O)NC(=O)[C@H](C)NC(=O)[C@H](CCCCNC(=O)COCCOCCNC(=O)COCCOCCNC(=O)CC[C@H](NC(=O)CCCCCCCCCCCCCCCCCCC(=O)O)C(=O)O)NC(=O)[C@H](CCCCN)NC(=O)[C@H](CC(=O)O)NC(=O)[C@H](CC(C)C)NC(=O)[C@H](CC(C)C)NC(=O)[C@@H](NC(=O)[C@H](CO)NC(=O)[C@H](Cc1ccc(O)cc1)NC(=O)[C@H](CC(=O)O)NC(=O)[C@H](CO)NC(=O)[C@@H](NC(=O)[C@H](Cc1ccccc1)NC(=O)[C@@H](NC(=O)CNC(=O)[C@H](CCC(=O)O)NC(=O)C(C)(C)NC(=O)[C@@H](N)Cc1ccc(O)cc1)[C@@H](C)O)[C@@H](C)O)[C@@H](C)CC)[C@@H](C)CC)C(=O)N[C@@H](CCC(=O)O)C(=O)NCC(=O)NCC(=O)N1CCC[C@H]1C(=O)N[C@@H](CO)C(=O)N[C@@H](CO)C(=O)NCC(=O)N[C@@H](C)C(=O)N1CCC[C@H]1C(=O)N1CCC[C@H]1C(=O)N1CCC[C@H]1C(=O)N[C@@H](CO)C(N)=O [Example 255] (H-Y[Aib]EGTFTSDYSILLDKK([AEEA-AEEA-γGlu-C20 diacid])AQHAFIEYLIEGGPSSGAPPPS-NH2; N-terminus assumed) | 0.0772 | 2.58 | 0.102 | 0.0407 | 257 |
| CC[C@H](C)[C@H](NC(=O)[C@H](CC(C)C)NC(=O)[C@](C)(Cc1ccc(O)cc1)NC(=O)[C@@H](CCC(=O)O)NC(=O)[C@@H](NC(=O)[C@H](Cc1ccccc1)NC(=O)[C@H](CCC(=O)O)NC(=O)C(C)(C)NC(=O)[C@H](CCC(N)=O)NC(=O)[C@H](C)NC(=O)[C@H](CCCCNC(=O)COCCOCCNC(=O)COCCOCCNC(=O)CC[C@H](NC(=O)CCCCCCCCCCCCCCCCC(=O)O)C(=O)O)NC(=O)[C@H](CCCN)NC(=O)[C@H](CC(=O)O)NC(=O)[C@H](CC(C)C)NC(=O)[C@](C)(CC(C)C)NC(=O)[C@@H](NC(=O)[C@H](CO)NC(=O)[C@H](Cc1ccncc1)NC(=O)[C@H](CC(=O)O)NC(=O)[C@H](CO)NC(=O)[C@@H](NC(=O)[C@](C)(Cc1ccccc1F)NC(=O)[C@@H](NC(=O)CNC(=O)[C@H](CCC(=O)O)NC(=O)C(C)(C)NC(=O)[C@@H](N)Cc1ccc(O)cc1)[C@@H](C)O)[C@@H](C)O)[C@@H](C)CC)[C@@H](C)CC)C(=O)N[C@@H](CCC(=O)O)C(=O)NCC(=O)NCC(=O)N1CCC[C@H]1C(=O)N[C@@H](CO)C(=O)N[C@@H](CO)C(=O)NCC(N)=O [Example 264] | 0.015 | 0.412 | 0.0196 | 0.0229 | 388 |
| CC[C@H](C)[C@H](NC(=O)[C@H](CC(C)C)NC(=O)C(C)(Cc1ccc(O)cc1)NC(=O)[C@@H](CCC(=O)O)NC(=O)[C@@H](NC(=O)[C@H](Cc1ccccc1)NC(=O)[C@H](CCC(=O)O)NC(=O)C(C)(C)NC(=O)[C@H](CCC(N)=O)NC(=O)[C@H](C)NC(=O)[C@H](CCCCNC(=O)COCCOCCNC(=O)COCCOCCNC(=O)CC[C@H](NC(=O)CCCCCCCCCCCCCCCCC(=O)O)C(=O)O)NC(=O)[C@H](CCCN)NC(=O)[C@H](CC(=O)O)NC(=O)[C@H](CC(C)C)NC(=O)C(C)(CC(C)C)NC(=O)[C@@H](NC(=O)[C@H](CO)NC(=O)[C@H](Cc1ccncc1)NC(=O)[C@H](CC(=O)O)NC(=O)[C@H](CO)NC(=O)[C@@H](NC(=O)C(C)(Cc1ccccc1F)NC(=O)[C@@H](NC(=O)CNC(=O)[C@H](CCC(=O)O)NC(=O)C(C)(C)NC(=O)[C@@H](N)Cc1ccc(O)cc1)[C@@H](C)O)[C@@H](C)O)[C@@H](C)CC)[C@@H](C)CC)C(=O)N[C@@H](CCC(=O)O)C(=O)NCC(=O)NCC(N)=O (stereo partly drawn) [Example 265] | 0.0224 | 0.537 | 0.0229 | 0.0223 | 567 |
| CC[C@H](C)[C@H](NC(=O)[C@H](CC(C)C)NC(=O)[C@H](Cc1ccc(O)cc1)NC(=O)[C@H](CCC(=O)O)NC(=O)[C@@H](NC(=O)[C@H](Cc1ccccc1)NC(=O)[C@H](C)NC(=O)C(C)(C)NC(=O)[C@H](CCC(N)=O)NC(=O)[C@H](C)NC(=O)[C@H](CCCCNC(=O)COCCOCCNC(=O)COCCOCCNC(=O)CC[C@H](NC(=O)CCCCCCCCCCCCCCCCC(=O)O)C(=O)O)NC(=O)[C@H](CCC(=O)O)NC(=O)[C@H](CC(=O)O)NC(=O)[C@H](CC(C)C)NC(=O)[C@H](CC(C)C)NC(=O)[C@@H](NC(=O)[C@H](CO)NC(=O)[C@H](Cc1ccc(O)cc1)NC(=O)[C@H](CC(=O)O)NC(=O)[C@H](CO)NC(=O)[C@@H](NC(=O)[C@H](Cc1ccccc1)NC(=O)[C@@H](NC(=O)CNC(=O)[C@H](CCC(=O)O)NC(=O)C(C)(C)NC(=O)[C@@H](N)Cc1ccc(O)cc1)[C@@H](C)O)[C@@H](C)O)[C@@H](C)CC)[C@@H](C)CC)C(=O)N[C@@H](CCC(=O)O)C(=O)NCC(=O)NCC(=O)N1CCC[C@H]1C(=O)N[C@@H](CO)C(=O)N[C@@H](CO)C(=O)NCC(N)=O [Example 268] (H-Y[Aib]EGTFTSDYSILLDEK([AEEA-AEEA-γGlu-C18 diacid])AQ[Aib]AFIEYLIEGGPSSG-NH2) | 0.0814 | 3.98 | 0.239 | 0.0572 | > 1190 |
| CC[C@H](C)[C@H](NC(=O)[C@H](CC(C)C)NC(=O)[C@H](Cc1ccc(O)cc1)NC(=O)[C@H](CCC(=O)O)NC(=O)[C@@H](NC(=O)[C@H](Cc1ccccc1)NC(=O)[C@H](C)NC(=O)C(C)(C)NC(=O)[C@H](CCC(N)=O)NC(=O)[C@H](C)NC(=O)[C@H](CCCCNC(=O)COCCOCCNC(=O)COCCOCCNC(=O)CC[C@H](NC(=O)CCCCCCCCCCCCCCCCC(=O)O)C(=O)O)NC(=O)[C@H](CCC(=O)O)NC(=O)[C@H](CC(=O)O)NC(=O)[C@H](CC(C)C)NC(=O)[C@H](CC(C)C)NC(=O)[C@@H](NC(=O)[C@H](CO)NC(=O)[C@H](Cc1ccc(O)cc1)NC(=O)[C@H](CC(=O)O)NC(=O)[C@H](CO)NC(=O)[C@@H](NC(=O)[C@H](Cc1ccccc1)NC(=O)[C@@H](NC(=O)CNC(=O)[C@H](CCC(=O)O)NC(=O)C(C)(C)NC(=O)[C@@H](N)Cc1ccc(O)cc1)[C@@H](C)O)[C@@H](C)O)[C@@H](C)CC)[C@@H](C)CC)C(=O)N[C@@H](CCC(=O)O)C(=O)NCC(=O)NCC(N)=O [Example 269] (H-Y[Aib]EGTFTSDYSILLDEK([AEEA-AEEA-γGlu-C18 diacid])AQ[Aib]AFIEYLIEGG-NH2) | 0.152 | 7.1 | 0.257 | 0.0595 | > 1100 |
| CC[C@H](C)[C@H](NC(=O)[C@H](CC(C)C)NC(=O)[C@H](Cc1ccc(O)cc1)NC(=O)[C@H](CCC(=O)O)NC(=O)[C@@H](NC(=O)[C@H](Cc1ccccc1)NC(=O)[C@H](CCC(=O)O)NC(=O)C(C)(C)NC(=O)[C@H](CCC(N)=O)NC(=O)[C@H](C)NC(=O)[C@H](CCCCNC(=O)COCCOCCNC(=O)COCCOCCNC(=O)CC[C@H](NC(=O)CCCCCCCCCCCCCCCCC(=O)O)C(=O)O)NC(=O)[C@H](CCCCN)NC(=O)[C@H](CC(=O)O)NC(=O)[C@H](CC(C)C)NC(=O)[C@H](CC(C)C)NC(=O)[C@@H](NC(=O)[C@H](CO)NC(=O)[C@H](Cc1ccc(O)cc1)NC(=O)[C@H](CC(=O)O)NC(=O)[C@H](CO)NC(=O)[C@@H](NC(=O)[C@H](Cc1ccccc1)NC(=O)[C@@H](NC(=O)CNC(=O)[C@H](CCC(=O)O)NC(=O)C(C)(C)NC(=O)[C@@H](N)Cc1ccc(O)cc1)[C@@H](C)O)[C@@H](C)O)[C@@H](C)CC)[C@@H](C)CC)C(=O)N[C@@H](CCC(=O)O)C(=O)NCC(=O)NCC(=O)N1CCC[C@H]1C(=O)N[C@@H](CO)C(=O)N[C@@H](CO)C(=O)NCC(N)=O [Example 270] (H-Y[Aib]EGTFTSDYSILLDKK([AEEA-AEEA-γGlu-C18 diacid])AQ[Aib]EFIEYLIEGGPSSG-NH2; N-terminus assumed) | 0.117 | 8.27 | 0.328 | 0.128 | > 1190 |
